We go through 14 compounds from ChEMBL document CHEMBL1201862, “PubChem BioAssay data set” (2004).

SMILES strings stand for the structures. Active and inactive are the calls of the source. For most assays here, no stated cut-off is given here; in the data, actives have a measured EC50 and inactives only a lower limit.

The nature of assay [1]: Luminescence Cell-Based Dose Response to Identify Activators of Luciferase Translation or Activity in H4-C Neuroglioblastoma Cells. [Related pubchem assays: 1829 (Project Summary), 1814 (Primary HTS)]. It is filed as functional.
A short description of assay [2]: Luminescence Cell-Based Dose Confirmation HTS to Identify Activators of 5'UTR Stem-Loop Driven Alpha-Synuclein mRNA Translation in H4 Neuroglioblastoma Cells. [Related pubchem assays: 1829 (Project Summary), 1814 (Primary HTS)]. It is filed as functional.
A further assay concerns H4. Description: Luminescence Cell-Based Dose Response HTS to Identify Activators of 5'UTR Stem-Loop Driven Prion Protein mRNA Translation in H4 Neuroglioblastoma Cells. [Related pubchem assays: 1829 (Project Summary), 1814 (Primary HTS)]. Type of assay: functional. The settings on record: Homo sapiens.
Assay [3] can be described thus: Luminescence Cell-Based Dose Response HTS to Identify Activators of Luciferase Translation or Activity in H4 […] Cells. [Related pubchem assays: 1829 (Project Summary), 1814 (Primary HTS)]. It is filed as functional.
Assay [4] is described as follows: Luminescence Cell-Based Dose Response to Identify Activators of 5'UTR Stem-Loop Driven Prion Protein mRNA Translation in H4-C Neuroglioblastoma Cells. [Related pubchem assays: 1829 (Project Summary), 1814 (Primary HTS)]. It is filed as functional.
Assay [5] in a line: Luminescence Cell-Based Dose Confirmation to Identify Activators of 5'UTR Stem-Loop Driven Alpha-Synuclein mRNA Translation in H4 Neuroglioblastoma Cells. [Related pubchem assays: 1829 (Project Summary), 1814 (Primary HTS)]. It is filed as functional.
The target in a further assay is T1, Aspartyl aminopeptidase (Plasmodium falciparum 3D7, UniProt Q8I2J3).
T1 sequence (Q8I2J3 whole entry): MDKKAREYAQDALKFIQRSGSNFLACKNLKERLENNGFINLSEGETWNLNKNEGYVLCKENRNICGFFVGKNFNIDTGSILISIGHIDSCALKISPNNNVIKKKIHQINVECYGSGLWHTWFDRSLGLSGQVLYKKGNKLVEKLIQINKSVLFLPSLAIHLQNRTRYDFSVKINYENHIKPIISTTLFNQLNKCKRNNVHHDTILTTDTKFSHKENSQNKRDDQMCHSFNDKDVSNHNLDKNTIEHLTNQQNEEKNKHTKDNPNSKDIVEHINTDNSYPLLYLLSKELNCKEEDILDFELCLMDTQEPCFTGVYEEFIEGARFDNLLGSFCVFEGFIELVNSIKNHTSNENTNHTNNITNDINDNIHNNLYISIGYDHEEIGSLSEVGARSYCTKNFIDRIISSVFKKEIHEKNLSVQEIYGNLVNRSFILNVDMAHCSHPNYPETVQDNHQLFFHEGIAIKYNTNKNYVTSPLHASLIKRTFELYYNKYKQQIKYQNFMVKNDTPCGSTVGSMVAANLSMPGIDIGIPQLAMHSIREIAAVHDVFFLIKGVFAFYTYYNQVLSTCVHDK

A further assay deals with Procathepsin L (Homo sapiens, UniProt P07711).
Sequence of Procathepsin L (P07711 whole entry): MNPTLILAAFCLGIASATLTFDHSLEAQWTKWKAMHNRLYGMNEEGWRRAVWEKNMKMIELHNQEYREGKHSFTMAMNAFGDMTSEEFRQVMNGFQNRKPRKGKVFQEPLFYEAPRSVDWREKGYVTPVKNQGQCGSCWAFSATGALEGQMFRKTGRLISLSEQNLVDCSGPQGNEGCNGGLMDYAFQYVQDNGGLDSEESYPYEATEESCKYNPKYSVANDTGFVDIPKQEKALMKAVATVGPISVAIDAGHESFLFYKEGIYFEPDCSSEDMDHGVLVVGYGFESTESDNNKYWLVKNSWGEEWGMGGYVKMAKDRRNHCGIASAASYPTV
Assay [6] in a line: cytotoxicity in KRAS-transformed pancreatic duct cells, primary screen, cell-based, fluorescence, HTS (AID 431). Type of assay: functional. As to conditions: Homo sapiens.
Assay [7] in a line: cytotoxicity in HPDE-C7 cells, cell-based, fluorescence, HTS (AID 430). The settings on record: Homo sapiens. Type of assay: functional.
Another assay has as its target T2, Protein RecA (Mycobacterium tuberculosis, UniProt P9WHJ3).
T2 sequence (P9WHJ3 whole entry): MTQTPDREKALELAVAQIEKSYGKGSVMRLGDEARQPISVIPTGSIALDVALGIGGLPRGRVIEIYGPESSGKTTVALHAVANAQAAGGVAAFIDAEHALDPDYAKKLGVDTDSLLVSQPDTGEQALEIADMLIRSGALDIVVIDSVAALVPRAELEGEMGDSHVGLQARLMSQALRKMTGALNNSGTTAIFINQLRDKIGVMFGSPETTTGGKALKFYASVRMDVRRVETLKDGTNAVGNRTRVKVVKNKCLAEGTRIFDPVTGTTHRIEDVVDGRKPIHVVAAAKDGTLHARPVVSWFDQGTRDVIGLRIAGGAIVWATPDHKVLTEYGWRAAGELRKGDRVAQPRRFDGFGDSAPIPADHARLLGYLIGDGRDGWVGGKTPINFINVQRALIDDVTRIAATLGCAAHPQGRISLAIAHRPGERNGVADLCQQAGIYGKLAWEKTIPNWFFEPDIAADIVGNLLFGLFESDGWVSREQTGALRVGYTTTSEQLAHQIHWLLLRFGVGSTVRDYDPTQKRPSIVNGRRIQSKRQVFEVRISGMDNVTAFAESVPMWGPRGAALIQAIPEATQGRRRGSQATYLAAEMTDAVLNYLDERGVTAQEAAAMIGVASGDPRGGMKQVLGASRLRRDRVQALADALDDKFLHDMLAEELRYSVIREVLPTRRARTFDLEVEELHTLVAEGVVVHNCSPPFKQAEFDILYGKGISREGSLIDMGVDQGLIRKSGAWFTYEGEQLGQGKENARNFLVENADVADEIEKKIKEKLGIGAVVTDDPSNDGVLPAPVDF
Nature of the assay: Fluorescence Cell-Free Homogeneous Dose Retest to Identify Inhibitors of RecA-Intein Splicing Activity. [Related pubchem assays (depositor defined):AID2097, AID2223, AID489010, AID492950]. It is filed as functional.

The nature of assay [8]: Vero E6 cell cytotoxicity, dose response, cytotoxicity control for non-replicating M. tuberculosis project, secondary assay (AID 492998). It is filed as functional, VeroE6. As to conditions: Vero C1008.
In assay [9] the target is T3, Replicative DNA helicase DnaB (Mycobacterium tuberculosis, UniProt P9WMR3).
T3 sequence (P9WMR3 whole entry): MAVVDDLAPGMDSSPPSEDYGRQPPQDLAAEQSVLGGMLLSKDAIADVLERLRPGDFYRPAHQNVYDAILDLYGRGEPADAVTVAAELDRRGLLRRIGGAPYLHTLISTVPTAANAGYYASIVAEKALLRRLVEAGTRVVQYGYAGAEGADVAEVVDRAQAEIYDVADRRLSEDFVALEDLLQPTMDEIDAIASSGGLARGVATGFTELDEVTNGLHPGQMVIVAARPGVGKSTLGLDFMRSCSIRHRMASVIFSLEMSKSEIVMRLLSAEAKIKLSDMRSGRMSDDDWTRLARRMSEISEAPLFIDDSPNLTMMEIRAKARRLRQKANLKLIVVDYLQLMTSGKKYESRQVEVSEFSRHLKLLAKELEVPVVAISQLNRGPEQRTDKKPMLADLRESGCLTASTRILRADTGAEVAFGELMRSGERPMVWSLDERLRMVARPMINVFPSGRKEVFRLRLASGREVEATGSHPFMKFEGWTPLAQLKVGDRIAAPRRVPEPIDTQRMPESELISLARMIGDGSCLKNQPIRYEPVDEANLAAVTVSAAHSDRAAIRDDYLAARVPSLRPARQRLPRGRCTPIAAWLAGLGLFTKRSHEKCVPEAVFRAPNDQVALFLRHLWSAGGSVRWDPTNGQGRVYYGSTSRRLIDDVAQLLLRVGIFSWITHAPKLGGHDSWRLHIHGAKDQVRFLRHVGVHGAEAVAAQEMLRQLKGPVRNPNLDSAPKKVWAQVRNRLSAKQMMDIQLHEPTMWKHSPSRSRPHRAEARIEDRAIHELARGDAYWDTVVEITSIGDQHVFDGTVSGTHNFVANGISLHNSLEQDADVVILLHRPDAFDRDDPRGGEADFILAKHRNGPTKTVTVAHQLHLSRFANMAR
Nature of the assay: DnaB intein splicing inhibitors, dose response, biochemical, cell-free fluorescence (AID 449749). Type of assay: functional.

A short description of assay [10]: THP-1 cell cytotoxicity, dose response, cytotoxicity control for non-replicating M. tuberculosis project (AID 489025). It is filed as functional.
For assay [11], the target named is Luciferin 4-monooxygenase (Photinus pyralis, UniProt P08659). Description: firefly luciferase enzyme inhibitors, dose response, biochemical, luminescence (AID 1891).
Sequence of Luciferin 4-monooxygenase (P08659 whole entry): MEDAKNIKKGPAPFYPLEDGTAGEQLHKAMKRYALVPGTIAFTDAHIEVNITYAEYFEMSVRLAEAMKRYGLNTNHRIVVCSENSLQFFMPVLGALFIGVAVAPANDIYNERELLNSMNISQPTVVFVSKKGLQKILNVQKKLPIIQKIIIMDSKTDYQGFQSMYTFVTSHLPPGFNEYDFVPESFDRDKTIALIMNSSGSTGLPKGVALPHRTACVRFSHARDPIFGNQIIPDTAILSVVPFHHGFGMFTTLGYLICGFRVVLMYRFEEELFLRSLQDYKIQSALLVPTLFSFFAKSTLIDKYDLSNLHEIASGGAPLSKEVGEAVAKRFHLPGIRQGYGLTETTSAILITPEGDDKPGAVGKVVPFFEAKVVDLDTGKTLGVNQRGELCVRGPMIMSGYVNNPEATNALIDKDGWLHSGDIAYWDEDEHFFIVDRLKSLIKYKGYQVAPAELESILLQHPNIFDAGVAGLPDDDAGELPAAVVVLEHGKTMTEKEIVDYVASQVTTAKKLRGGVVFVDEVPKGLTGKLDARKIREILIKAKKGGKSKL
Assay [12] is described as follows: growth suppression of beta-catenin-knockout colon cells, dose response, cell-based, HCT116, human colon tumor (AID 1045).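 Further: HCT116 colon tumor cells with beta catenin knocked out; cells exposed to compound for 60 hours.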 Type of assay: functional.
The nature of another assay: cells. Type of assay: functional.
Another assay has as its system Vero. Nature of the assay: cells. It is filed as functional. The settings on record: Chlorocebus sabaeus.
The nature of assay [13]: Luminescence Cell-Based Dose Confirmation HTS to Identify Inhibitors of Platelet Dense Granule Release. [Related pubchem assays: 1663 (Primary HTS), 1678 (Summary of Project)]. Type of assay: functional.
Assay [14] is described as follows: growth suppression of PTEN-null colon cells, dose response, cell-based, HCT116 PTEN knockout (AID 1047).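 Further: HCT116 colon tumor cells with PTEN knocked out; cells exposed to compound for 60 hours before readout; potency for loss of cell viability measured by luminescence.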 Type of assay: functional.
In assay [15] the target is T4, Microphthalmia-associated transcription factor (Homo sapiens, UniProt O75030).
T4 sequence (O75030 whole entry): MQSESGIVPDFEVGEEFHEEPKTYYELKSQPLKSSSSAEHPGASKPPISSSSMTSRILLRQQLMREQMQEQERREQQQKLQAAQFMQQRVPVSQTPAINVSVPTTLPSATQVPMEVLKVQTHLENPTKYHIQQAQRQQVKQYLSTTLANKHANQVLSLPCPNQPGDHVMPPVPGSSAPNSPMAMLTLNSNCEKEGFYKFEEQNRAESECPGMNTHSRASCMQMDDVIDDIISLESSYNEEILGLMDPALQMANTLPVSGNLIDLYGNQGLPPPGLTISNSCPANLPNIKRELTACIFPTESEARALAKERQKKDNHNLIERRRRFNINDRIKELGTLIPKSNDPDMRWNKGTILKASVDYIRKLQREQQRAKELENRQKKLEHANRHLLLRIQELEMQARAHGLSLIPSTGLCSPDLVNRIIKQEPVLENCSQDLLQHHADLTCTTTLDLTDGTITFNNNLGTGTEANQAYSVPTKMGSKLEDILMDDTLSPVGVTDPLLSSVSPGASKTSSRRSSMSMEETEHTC
Description: TRPM1 promoter luciferase signal decrease, dose response, MITF inhibitor project, cell-based, SK-MEL-5, cherry-picked, set 3 (AID 493073).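 Further: SK-MEL-5 melanoma cells with luciferase driven by the MITF target TRPM1 promoter.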 Type of assay: functional.

Regarding `O=C(/N=C1\SCC(=O)N1c1ccccc1Cl)c1ccccc1`, the EC50 (commonly the midpoint of the concentration-response curve) in [1] is > 12 µM (not active); in assay [2], < 0.1 µM (active); in the assay with H4 it was 50.5 µM (active); in assay [3] it was 11.1 µM (active); in assay [4], 1.86 µM (active); in [5], 0.717 µM (active).
`Cc1cc(C)cc(C(=O)n2cnnc2N)c1`: the values for the IC50 on Aspartyl aminopeptidase and at Procathepsin L were 2.89 µM (active) and > 59.6 µM (not active), respectively.
On the same counts, the results for `Cc1ccc(N=C(S)Nn2cnnc2)c(C)c1` are 2.11 µM (active) and > 59.6 µM (not active).
As to `CC(=O)c1c(C)[nH]c(C(=O)NCCC2=CCCCC2)c1C`, the EC50 in assay [1] was > 12 µM (not active); in the assay on H4, 12.3 µM (active); in [3], < 0.1 µM (inconclusive); in [4], 0.862 µM (active); in assay [5], 0.468 µM (active).
On the same counts, the results for `Cc1cc(C(=O)CSc2n[nH]c(N)n2)c(C)n1-c1ccccc1` are 0.687 µM (active), 5.58 µM (active), < 0.1 µM (active), 1.03 µM (active) and 6.75 µM (active).
On to `Cc1[nH]c2ccccc2c1C(O)CN1CCN(c2cccc(C(F)(F)F)c2)CC1` (configuration not stated), for which the EC50 in [6] is 6.67 µM (active); in assay [7], 7.14 µM (active).
On the same counts, the results for `CCCCc1ccc(Nc2nc(O)cc(CCC)n2)cc1` are 6.75 µM (active) and 10.8 µM (active).
`O=C1OC(c2ccccc2)=C/C1=C/N1CCCCC1`: the EC50 in assay [1] was 0.352 µM (active); in assay [2], < 0.1 µM (active); with H4, 0.142 µM (active); in [3] it was 0.129 µM (inconclusive); in assay [4] it was 0.426 µM (active); in assay [5], 0.306 µM (active).
As for `Cc1cccc(OCCN2CSC(=S)N(C)C2)c1`, the EC50 on Protein RecA is 12.5 µM (active); in [6] it was 6.24 µM (active); in [11], > 112 µM (not active); in [12], 4.21 µM (active); in assay [7], 6.23 µM (active); in [13] it was > 112 µM (not active). Moreover, the EC50 in assay [14] is 7.66 µM (active). In addition, the CC50 (commonly the concentration giving 50% cytotoxicity) in assay [8] is 6.85 µM (active); in [10] it was 11.8 µM (active); in the assay on Vero, 7.62 µM (active). Further, in assay [9], the AC50 (commonly the concentration at which the activity in the assay is half-maximal) was 14.7 µM (active). The IC50 (in general, the concentration at which inhibition is half-maximal) in “cells” is 10.4 µM (active).
Turning to `N#C/C(=C\c1ccc[nH]1)Sc1nc2ccccc2s1`, the EC50 in [6] and in assay [7] was > 20 µM (not active) throughout.
In the case of `CC1(C)C2([N+](=O)[O-])CN3CC1([N+](=O)[O-])CN(C2)C3c1ccc(O)c(O)c1` (configuration not stated), the values for the IC50 at Aspartyl aminopeptidase and against Procathepsin L were 1.19 µM (active) and > 59.6 µM (not active), respectively.
On to `COc1cc2c(cc1O)C(SC)=NC(C)(C)C2`, for which the AC50 in assay [15] is 11.3 µM (active). Also, the EC50 in [6] is 13.6 µM (active); in [7], 14.1 µM (active).
For the compound `O=C(Nc1cccc(Cl)c1Cl)Nn1cnnc1`, the IC50 on Aspartyl aminopeptidase was 0.631 µM (active); on Procathepsin L, > 59.6 µM (not active).
As to `CC(NC(=O)Nc1ccc2c(c1)OCO2)C1CCCO1` (configuration not stated), the EC50 is > 12 µM (not active) in assay [1]; < 0.1 µM (active) in assay [2]; 33 µM (active) in the assay on H4; 8.12 µM (active) in [3]; > 12 µM (not active) in assay [4]; > 12 µM (not active) in assay [5].
